Results from patent US6720184B1, “Method of altering sphingolipid metabolism and detecting fumonisin ingestion and contamination” (Emory University, priority 1991, dated 2004).
Values joined by “and” are separate entries in the source; they are usually repeats but may differ in a detail not shown here. Equal entries are not always repeated. Where two headings read alike, the source gives them in different places.

Experiments:
[1] = tested on: de novo sphingolipid biosynthesis; assay: de novo sphingosine biosynthesis from [14C]serine in hepatocytes
Description: Hepatocyte culture—Hepatocytes were prepared by a collagenase perfusion method, as known in the art as described in (22), from male Sprague-Dawley rats (125 to 200 g) fed a chow diet (Ralston Purina, St. Louis, Mo.) ad libitum. The hepatocytes were isolated using carefully aseptic procedures and plated in 60 mm tissue culture dishes coated with collagen for short term (<24 h) or with Matrigel for longer term (3 to 4 d) experiments. After plating for 4 h, the medium was changed to 2 ml of DMEM (with 3.7 g/L NaHCO3) containing 10 μg/ml f insulin, 6.1 g/L of penicillin, 10 g/L of streptomycin sulfate, and varying concentrations of fumonisins (added from a 1 mM solution in Delbecco's phosphate buffered saline). The cells were maintained in a tissue culture incubator at 37° C. and an atmosphere of 5% CO2; the medium was changed every 24 h.
Lipid analyses—The de novo biosynthesis of sphingosine was measured, as known in the art as described in (23,24). Briefly, cells that had been exposed to fumonisins for 0 to 4 d were changed to new medium containing 10 μCi of [^14C]serine (25 mCi/mmol) in 2 ml of serine-free DMEM (Gibco) in the presence or absence of fumonisin. After incubation for 2 or 16 h, they were scraped from the dishes, 25 μg of carrier sphingosine and sphinganine were added, and the lipids were extracted and acid hydrolyzed to liberate the free long-chain bases using conditions that give optimal hydrolysis with minimal decomposition of the labile long-chain bases, as known in the art as described in (23-25). The sphinganine and sphingosine were separated by thin-layer chromatography on silica gel H (Brinkman) plates developed with CHCl,:methanol:2 N NH4OH (40:10:1, v/v/v) and the radiolabelling profile (shown in FIG. 2) was determined by radiometric scanning of the plates with a Bioscan System 200 Imaging Scanner. […] The appropriate regions of the chromatoplate were scraped, placed in scintillation vials, and 0.2 ml of water and 4 ml of a detergent based scintillation cocktail were added. After several hours, the samples were counted with the appropriate corrections for quenching.

rat hepatocytes = assay: hepatocyte viability (trypan blue exclusion); format: cell-based; details: 1 μM, 4 d
[2] = tested on: serine palmitoyltransferase; assay: serine palmitoyltransferase in disrupted cells after treatment of hepatocytes; format: cell-based, rat; details: hepatocytes treated with 2.5 μM
ceramide synthase = assay: conversion of [3H]sphingosine to [3H]ceramide by intact hepatocytes; format: cell-based, rat; details: 1 μM for 1 h before [3H]sphingosine (FIG. 4D)
Description: To measure the relative activity of ceramide synthase in intact hepatocytes, the cells were incubated with 1 μM fumonisin B1 for 1 h, then 1 μCi of [^3H]sphingosine was added and the cells were incubated for varying times. The [^3H]sphingosine was freshly purified because it decomposes rapidly to a material with an Rf similar to that of ceramides on TLC. The [^3H]sphingosine was diluted to 1 Ci/mmol and applied to a small silica gel column (Unisil, Clarkston, Ill.) in chloroform. The column was washed with 10-column volumes of chloroform, the [^3H]sphingosine was eluted with methanol and the purity confirmed by TLC. The [^3H]sphingosine was transferred to a small test tube, the solvent was evaporated under N2, a small volume of culture medium was added immediately, and the tube was sonicated for a few minutes using a bath-type sonicator. Aliquots of this solution were added to the cells, and at the end or the specified incubation period the cells were scraped from the dish, 25 μg of unlabelled ceramide carrier was added, and the lipids were extracted as described above. The [^3H]ceramides were separated from [^3H]sphingosine using silica gel H TLC plates developed with diethyl ether:methanol (99:1, v/v), visualized with I2 vapor, and the amount of radiolabel was determined by scintillation counting.

[3] = tested on: de novo sphingolipid biosynthesis; assay: [14C]sphingosine biosynthesis by hepatocytes isolated from rats given fumonisin B1 by gavage; format: in vivo, rat; details: 5 mg/200 g body weight by gavage for 2 days
serum sphingolipids = assay: free long-chain bases in sera of ponies fed fumonisin-contaminated feed; format: in vivo, pony; details: for serum sphinganine / serum sphingosine: pony 341, 22 ppm
Description: Materials—Corn screenings were ground in a Romer Mill (Romer Labs, Chesterfield, Mo.) and mixed thoroughly. Samples were taken from each lot and analyzed for fumonisins by high-performance liquid chromatography (HPLC) and thin-layer chromatography as is known in the art as previously described in (15). […] Using the mean fumonisin B1 level, individual rations were prepared daily by adding the corn screenings to pellets (NADC Horse Ration, Code 560, Purina Mills, St. Louis, Mo.) and molasses (Promolas Easy Mixer supreme, Pacific Molasses Co., San Francisco, Calif.) to yield the fumonisin concentrations cited in the text. In general, the ration contained 60% pellets, 10% molasses, and 30% corn screenings. The control diet consisted of pellets plus molasses.
(§1) Feeding protocols—Clinically normal ponies of varying age and sex were conditioned on the control diet for 21 days prior to the trial. Horse 341 was a 6 year old gelding (173-193 Kg), 299 was a 12 year old mare (205-215 Kg), 164 was a 12 year old mare (206-290 Kg) and 166 was a 16 year old mare (143-164 Kg). During the conditioning period and throughout the trial, all ponies received alfalfa hay by free choice. The test groups were fed varying levels of fumonisin (15 to 44 ppm) for varying lengths of time.
Analysis of serum long-chain bases—Blood was drawn approximately twice a week, centrifuged to obtain serum, and aliquots were frozen for analyses of free sphingosine and sphinganine by HPLC as is known in the art as described in (28). To quantitate total sphingolipids in some samples, the extracts were acid hydrolyzed before preparing the samples for HPLC.

[4] = Source text: as §1
Clinical chemistry, evaluation, and tissue collection—The following clinical chemistry parameters were also analyzed with blood: total bilirubin, direct bilirubin, urea nitrogen, alkaline phosphatase, AST/SGOT, creatine kinase, gamma glutamyl transaminase, and bile acids. The animals were observed intermittently through ut each day and behavior changes were noted. Animals that were euthanized or died underwent a routine necropsy, and brain, liver, and kidney were prepared for microscopic study.

[5] = reference 13; cited from earlier work
[6] = pony #212, initially 44 ppm, by 7 days

With CCCC[C@@H](C)[C@@H](OC(=O)C[C@@H](CC(=O)O)C(=O)O)[C@H](C[C@@H](C)C[C@H](O)CCCC[C@@H](O)C[C@H](O)[C@H](C)N)OC(=O)C[C@@H](CC(=O)O)C(=O)O [fumonisin B1] the “inhibition of [14C]sphingosine formation by hepatocytes” value ([1]; 1 μM) was “almost complete inhibition”, the “de novo sphingolipid biosynthesis” value ([1]; 10 μM) was “completely blocked” and the “amount of radiolabel in [14C]sphinganine” value ([1]; hepatocytes treated (FIG. 4A)) was “increased”. For the same compound, the IC50 ([1]; read-out: IC50 for inhibition of [14C]serine incorporation into [14C]sphingosine, rat hepatocytes, 2 h incubation (FIG. 3B)) was ~100 nM and 100 nM, the “number of viable cells” value (rat hepatocytes) was “no decrease” and the “inhibition of serine palmitoyltransferase in disrupted cells” value [2] was “no inhibition”. The “serine palmitoyltransferase activity in disrupted cells” value [2] was 7.7±0.2 pmol/min per mg of cellular protein, the “[3H]sphingosine conversion to ceramides” value (ceramide synthase) was “Inhibition” and the “ratio of free [14C]sphingosine to [14C]sphinganine” value [3] was 0.5±0.1. The “Ratio Sa/So” value (serum sphingolipids; Pony #164, feed 44 ppm, day 2) was 0.60, the “Sphinganine, free, serum” value (serum sphingolipids; Pony #164, feed 44 ppm, day 2) was 70.2 ± 4.2 pmol/mL and the “Sphingosine, free, serum” value (serum sphingolipids; Pony #164, feed 44 ppm, day 2) was 117 ± 7 pmol/mL. For the same compound, the “Ratio Sa/So” value (serum sphingolipids; Pony #164, feed 44 ppm, day 7) was 1.67, the “Sphinganine, free, serum” value (serum sphingolipids; Pony #164, feed 44 ppm, day 7) was 253 ± 22 pmol/mL and the “Sphingosine, free, serum” value (serum sphingolipids; Pony #164, feed 44 ppm, day 7) was 152 ± 13 pmol/mL. The “Ratio Sa/So” value (serum sphingolipids; Pony #164, feed 44 ppm, day 10) was 1.25, the “Sphinganine, free, serum” value (serum sphingolipids; Pony #164, feed 44 ppm, day 10) was 283 ± 18 pmol/mL and the “Sphingosine, free, serum” value (serum sphingolipids; Pony #164, feed 44 ppm, day 10) was 226 ± 20 pmol/mL. The “Ratio Sa/So” value (serum sphingolipids; Pony #166, feed 44 ppm, day 2) was 0.87, the “Sphinganine, free, serum” value (serum sphingolipids; Pony #166, feed 44 ppm, day 2) was 37.2 ± 0.2 pmol/mL and the “Sphingosine, free, serum” value (serum sphingolipids; Pony #166, feed 44 ppm, day 2) was 43 ± 6 pmol/mL. The “Ratio Sa/So” value (serum sphingolipids; Pony #166, feed 44 ppm, day 7) was 0.95, the “Sphinganine, free, serum” value (serum sphingolipids; Pony #166, feed 44 ppm, day 7) was 62 ± 8 pmol/mL and the “Sphingosine, free, serum” value (serum sphingolipids; Pony #166, feed 44 ppm, day 7) was 66 ± 16 pmol/mL. For the same compound, the “Ratio Sa/So” value (serum sphingolipids; Pony #166, feed 44 ppm, day 10) was 1.92, the “Sphinganine, free, serum” value (serum sphingolipids; Pony #166, feed 44 ppm, day 10) was 179 ± 8 pmol/mL and the “Sphingosine, free, serum” value (serum sphingolipids; Pony #166, feed 44 ppm, day 10) was 92 ± 4 pmol/mL. The “Ratio Sa/So” value (serum sphingolipids; Pony #166, feed 44 ppm, day 13) was 1.72, the “Sphinganine, free, serum” value (serum sphingolipids; Pony #166, feed 44 ppm, day 13) was 174 ± 18 pmol/mL and the “Sphingosine, free, serum” value (serum sphingolipids; Pony #166, feed 44 ppm, day 13) was 100 ± 8 pmol/mL. The “increase in serum sphinganine versus level immediately prior to feeding” value (serum sphingolipids; pony 164, 44 ppm, day 2) was 6 fold, the “ratio of sphinganine to sphingosine versus pre-feeding” value (serum sphingolipids; pony 164, 44 ppm, day 2) was “doubled” and the “increase in serum sphinganine versus initial level” value (serum sphingolipids; pony 164, 44 ppm, day 7) was 22 fold. For the same compound, the “serum sphingosine versus initial level” value (serum sphingolipids; pony 164, 44 ppm, day 7) was 3.6 fold, the “increase in serum sphinganine” value (serum sphingolipids; pony 166, 44 ppm, day 2) was 2.7 fold and the “elevation in serum sphinganine” value (serum sphingolipids; pony 166, 44 ppm, day 10) was 13 fold. For the same compound, the “elevation in serum sphingosine” value (serum sphingolipids; pony 166, 44 ppm, day 10) was 2 fold, the serum sphinganine (serum sphingolipids; day 231) was 256 pmol/mL and the serum sphingosine (serum sphingolipids; day 231) was 163 pmol/mL. For the same compound, the serum sphinganine (serum sphingolipids; day 235) was 532 pmol/mL, the serum sphingosine (serum sphingolipids; day 235) was 418 pmol/mL and the “sphinganine to sphingosine ratio” value (serum sphingolipids; pony 341, reintroduction of 22 ppm on day 182) was over 1.5. For the same compound, the “further increase of serum sphingosine versus day 2” value (serum sphingolipids; [6]) was 2 fold, the “serum sphinganine versus level at day 2” value (serum sphingolipids; [6]) was 6.7 fold and the “sphinganine exceeding level of sphingosine” value (serum sphingolipids; [6]) was 1.9 fold. The serum sphingosine level (serum sphingolipids; pony #212, initially 44 ppm, within 2 days) was 147 ± 5 pmol, the “ratio of sphinganine to sphingosine” value (serum sphingolipids; pony #341, 15 ppm, first 130 days) was “fairly consistent elevation over the initial value” and the AST/SGDT ([4]; Pony 208, fumonisin feed (level not given), day 2) was 344 units. For the same compound, the AST/SGDT ([4]; Pony 208, fumonisin feed (level not given), day 6) was 2130 units, the AST/SGDT ([4]; Pony 208, fumonisin feed (level not given), day 10) was 1240 units and the AST/SGDT ([4]; Pony 208, fumonisin feed (level not given), day 13) was 1010 units. For the same compound, the AST/SGDT ([4]; Pony #164, feed 44 ppm, day 2) was 235 Units, the AST/SGDT ([4]; Pony #164, feed 44 ppm, day 7) was 357 Units and the AST/SGDT ([4]; Pony #164, feed 44 ppm, day 10) was 4000 Units. The clinical signs ([4]; Pony #164, feed 44 ppm, day 10) was “^1Pony was described as nervous and off feed from day 5; by day 9 was blind and down, and on day 10 had full clinical signs of ELEM and died that evening”, the clinical signs ([4]; Pony #166, feed 44 ppm, after being put back on full feed) was “^2Pony was described as lethargic from day 5; off feed from day 8; later put back on full feed and exhibited CNS signs; was euthanized on day 45” and the AST/SGDT ([4]; Pony #166, feed 44 ppm, day 2) was 199 Units. The AST/SGDT ([4]; Pony #166, feed 44 ppm, day 7) was 215 Units, the AST/SGDT ([4]; Pony #166, feed 44 ppm, day 10) was 1470 Units and the AST/SGDT ([4]; Pony #166, feed 44 ppm, day 13) was 2080 Units. The clinical outcome ([4]; ponies 164 and 166, feed 44 ppm) was “resulted in ELEM”, the time of death ([4]; pony 164, feed 44 ppm) was 10 days and the “elevation in AST/SGOT” value ([4]; pony 166, 44 ppm, day 10) was 7 fold. The day of euthanasia ([4]; pony 166, feed 44 ppm) was 45 days, the clinical outcome ([4]; pony 341, 15 then 22 ppm, day 235) was “died with the symptoms of equine leucoencephalomalacia” and the “serum AST/SGOT activities” value ([4]; pony 341, 15 then 22 ppm, until between day 224 and 231) was “essentially unaffected”. The disease caused [5] was “porcine pulmonary edema”.
